Test results reported in patent US8791107B2, “N-substituted oxazinopteridines and oxazinopteridinones” (Takeda Pharmaceutical Company Limited, priority 2011, dated 2014).

target: T1, PI3Kδ (Homo sapiens, UniProt O00329); experiment: PI3Kδ inhibition, modified PIK3CD Adapta TR-FRET assay; type: biochemical; conditions: recombinant GST-tagged full length PIK3CD co-expressed with PIK3R1 (p85α); 2 μM ATP, 50 μM PIP2; read-out: PI3Kδ Inhibition (pIC50) (converted)
T1 construct: The protein is full length and co-expressed with untagged PIK3R1; GST; purchased Invitrogen PV5274
How it was run: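 Full-length GST-PIK3CD co-expressed with p85α was run in 50 mM HEPES pH 7.5, 3 mM MgCl2, 1 mM EGTA, 100 mM NaCl, 0.03% CHAPS, 2 mM DTT, 1% DMSO, with 12-point compound titrations. Reactions at room temperature were started with solution containing 2 μM ATP and 50 μM PIP2. ADP was detected by Adapta TR-FRET (620 nm-ratioed).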

T1 sequence (O00329 whole entry): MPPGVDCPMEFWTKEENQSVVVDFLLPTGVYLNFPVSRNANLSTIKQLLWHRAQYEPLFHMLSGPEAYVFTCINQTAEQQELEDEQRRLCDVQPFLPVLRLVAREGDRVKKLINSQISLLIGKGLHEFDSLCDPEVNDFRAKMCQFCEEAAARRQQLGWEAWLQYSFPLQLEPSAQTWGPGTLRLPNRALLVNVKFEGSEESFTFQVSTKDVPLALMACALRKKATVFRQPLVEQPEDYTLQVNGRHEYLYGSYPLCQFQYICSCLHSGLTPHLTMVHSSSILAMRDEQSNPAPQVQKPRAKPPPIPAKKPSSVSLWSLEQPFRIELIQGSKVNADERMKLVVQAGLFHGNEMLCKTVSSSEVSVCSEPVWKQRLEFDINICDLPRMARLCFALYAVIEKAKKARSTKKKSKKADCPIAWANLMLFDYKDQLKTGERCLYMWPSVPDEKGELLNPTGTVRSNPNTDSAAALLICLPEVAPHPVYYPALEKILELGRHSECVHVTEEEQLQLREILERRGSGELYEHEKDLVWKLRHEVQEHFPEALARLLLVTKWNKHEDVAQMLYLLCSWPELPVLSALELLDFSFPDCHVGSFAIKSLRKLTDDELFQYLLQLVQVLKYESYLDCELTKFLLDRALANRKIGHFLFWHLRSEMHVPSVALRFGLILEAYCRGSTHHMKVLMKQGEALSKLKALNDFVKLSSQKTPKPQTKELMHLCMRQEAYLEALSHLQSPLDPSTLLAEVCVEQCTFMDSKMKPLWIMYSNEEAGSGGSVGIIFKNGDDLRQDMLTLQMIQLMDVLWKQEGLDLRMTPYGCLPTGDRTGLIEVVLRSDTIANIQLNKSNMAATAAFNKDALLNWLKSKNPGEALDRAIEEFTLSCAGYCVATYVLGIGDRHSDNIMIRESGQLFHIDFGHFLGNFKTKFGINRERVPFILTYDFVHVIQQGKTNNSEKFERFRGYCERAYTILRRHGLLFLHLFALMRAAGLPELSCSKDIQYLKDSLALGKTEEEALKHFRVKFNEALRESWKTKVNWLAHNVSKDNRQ
T1 sequence (P27986 whole entry partner): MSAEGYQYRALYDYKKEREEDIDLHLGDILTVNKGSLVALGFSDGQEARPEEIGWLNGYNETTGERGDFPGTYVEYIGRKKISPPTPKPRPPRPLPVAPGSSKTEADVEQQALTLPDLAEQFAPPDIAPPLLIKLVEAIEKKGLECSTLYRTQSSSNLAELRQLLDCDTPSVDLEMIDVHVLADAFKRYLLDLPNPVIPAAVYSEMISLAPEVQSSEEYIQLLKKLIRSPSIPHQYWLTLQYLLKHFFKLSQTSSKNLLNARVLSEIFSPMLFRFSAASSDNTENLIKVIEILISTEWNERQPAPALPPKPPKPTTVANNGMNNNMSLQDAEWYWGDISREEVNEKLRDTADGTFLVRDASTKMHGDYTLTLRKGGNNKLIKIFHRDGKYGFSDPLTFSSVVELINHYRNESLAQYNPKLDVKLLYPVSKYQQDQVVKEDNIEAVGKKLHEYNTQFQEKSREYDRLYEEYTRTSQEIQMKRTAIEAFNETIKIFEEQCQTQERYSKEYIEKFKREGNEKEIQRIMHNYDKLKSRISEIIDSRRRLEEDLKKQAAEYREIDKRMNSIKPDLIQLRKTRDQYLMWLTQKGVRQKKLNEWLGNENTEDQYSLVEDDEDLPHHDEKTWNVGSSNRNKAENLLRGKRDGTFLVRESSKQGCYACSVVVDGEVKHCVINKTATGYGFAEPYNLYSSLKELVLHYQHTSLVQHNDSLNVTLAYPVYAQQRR

Row | IC50 | SMILES
1 | 7940 nM | CS(=O)(=O)c1ccc(CN2C(=O)C3COCCN3c3nc(-c4cccc(NS(=O)(=O)C5CC5)c4)ncc32)cc1 (stereo not drawn) [Example 120, N-(3-(5-(4-(methylsulfonyl)benzyl)-6-oxo-5,6,6a,7,9,10-hexahydro-[1,4]oxazino[3,4-h]pteridin-2-yl)phenyl)cyclopropanesulfonamide]
2 | 2 nM | CNC(=O)Nc1ccc(-c2ncc3c(n2)N2CCOCC2C(=O)N3Cc2ccc(-n3cncn3)cc2)cc1 (stereo not drawn) [Example 92, 1-(4-(5-(4-(1H-1,2,4-triazol-1-yl)benzyl)-6-oxo-5,6,6a,7,9,10-hexahydro-[1,4]oxazino[3,4-h]pteridin-2-yl)phenyl)-3-methylurea]
3 | 631 nM | O=C1C2COCCN2c2nc(-c3cn[nH]c3)ncc2N1[C@H]1CCc2ccccc21 (stereo partly drawn) [Example 96, 5-((S)-2,3-dihydro-1H-inden-1-yl)-2-(1H-pyrazol-4-yl)-6a,7,9,10-tetrahydro-[1,4]oxazino[3,4-h]pteridin-6(5H)-one]
4 | 6310 nM | CS(=O)(=O)c1ccc(CN2C(=O)C3COCCN3c3nc(-c4cccc(N5CCCS5(=O)=O)c4)ncc32)cc1 (stereo not drawn) [Example 132, 2-(3-(1,1-dioxidoisothiazolidin-2-yl)phenyl)-5-(4-(methylsulfonyl)benzyl)-6a,7,9,10-tetrahydro-[1,4]oxazino[3,4-h]pteridin-6(5H)-one]
5 | 398 nM | CN(C)C(=O)CN1CC2COCCN2c2nc(-c3cccc4[nH]ccc34)ncc21 (stereo not drawn) [Example 43, 2-(2-(1H-indol-4-yl)-6a,7,9,10-tetrahydro-[1,4]oxazino[3,4-h]pteridin-5(6H)-yl)-N,N-dimethylacetamide]
6 | 251 nM | O=C(Cc1ccccc1)N1CC2COCCN2c2nc(-c3cccc4[nH]ccc34)ncc21 (stereo not drawn) [Example 48, 1-(2-(1H-indol-4-yl)-6a,7,9,10-tetrahydro-[1,4]oxazino[3,4-h]pteridin-5(6H)-yl)-2-phenylethanone]
7 | 251 nM | Cc1nc(-c2cccc3[nH]ccc23)nc2c1N(CC1CC1)CC1COCCN21 (stereo not drawn) [Example 27, 5-(cyclopropylmethyl)-2-(1H-indol-4-yl)-4-methyl-5,6,6a,7,9,10-hexahydro-[1,4]oxazino[3,4-h]pteridine]
8 | > 10000 nM | Clc1cccc2c(-c3ncc4c(n3)N3CCOCC3CN4)c[nH]c12 (stereo not drawn) [Example 11, 2-(7-chloro-1H-indol-3-yl)-5,6,6a,7,9,10-hexahydro-[1,4]oxazino[3,4-h]pteridine]
9 | 6310 nM | CC(C)NS(=O)(=O)c1cccc(-c2ncc3c(n2)N2CCOCC2C(=O)N3Cc2ccc(S(C)(=O)=O)cc2)c1 (stereo not drawn) [Example 98, N-isopropyl-3-(5-(4-(methylsulfonyl)benzyl)-6-oxo-5,6,6a,7,9,10-hexahydro-[1,4]oxazino[3,4-h]pteridin-2-yl)benzenesulfonamide]
10 | 20 nM | CS(=O)(=O)c1ccc(CN2C(=O)C3COCCN3c3nc(-c4ccc(F)c5[nH]ccc45)ncc32)cc1 (stereo not drawn) [Example 142, 2-(7-fluoro-1H-indol-4-yl)-5-(4-(methylsulfonyl)benzyl)-6a,7,9,10-tetrahydro-[1,4]oxazino[3,4-h]pteridin-6(5H)-one]
11 | 7.94 nM | CS(=O)(=O)c1ccc(CN2CC3COCCN3c3nc(-c4cnc(N)nc4)ncc32)c(Cl)c1 (stereo not drawn) [Example 7, 5-(5-(2-chloro-4-(methylsulfonyl)benzyl)-5,6,6a,7,9,10-hexahydro-[1,4]oxazin[3,4-h]pteridin-2-yl)pyrimidin-2-amine]
12 | 398 nM | CCc1nnc(CN2C[C@@H]3COCCN3c3nc(-n4ccc5cnccc54)ncc32)o1 [Example 180, (R)-5-((5-ethyl-1,3,4-oxadiazol-2-yl)methyl)-2-(1H-pyrrolo[3,2-c]pyridin-1-yl)-5,6,6a,7,9,10-hexahydro-[1,4]oxazino[3,4-h]pteridine]
